From patent US20180353483A1, “PHARMACEUTICAL COMPOSITIONS AND METHODS FOR INDOLEAMINE, 2, 3-DIOXYGENASE INHIBITION AND INDICATIONS THEREFOR” (Incyte Corporation, priority 2015, published 2018)
Entries after “also recorded” stand apart in the source; their conditions may differ. Like-named read-outs stand apart in the source and are kept apart here.

Columns and labels:
[1] = male, dog, in vivo, 500 mg/kg/day
[2] = Unbound fraction in plasma; format: in vitro ADME
[3] = Dose-escalation study of Compound 1 pharmacokinetics in subjects with advanced malignancies (tablets of Formulations 1 and/or 3, fasted; food effect cohort); format: in vivo, human; settings: for AUC: read-out: AUC0-τ
Excerpt: Thus, Cmax, Cmin and Tmax were taken directly from the observed plasma concentration data or imputed in some cases. The terminal-phase disposition rate constant (λz) was estimated using a log-linear regression of the concentration data in the terminal disposition phase, and t1/2 was estimated as ln(2)/λz. AUC0-t and AUC0-τ was estimated using the linear trapezoidal rule for increasing concentrations and the log-trapezoidal rule for decreasing concentrations. At the PK steady-state, the apparent oral-dose clearance, CL/F, was estimated as Dose/AUC0-τ, and Vz/F was estimated as Dose/[AUC0-τ*λz].
The log-transformed pharmacokinetic parameters were compared among the BID dose groups using a 1-factor ANOVA with the factor for dose. Dose-dependent exposure parameters (Cmax and AUC) were normalized to a common dose before statistical comparisons were made.
The oral bioavailability (F) and systemic clearance (CL) were estimated. […] This method of estimation assumes near complete oral absorption and the liver being the primary organ for drug clearance. […] The above equation was modified to incorporate the term of Fa to accommodate an incomplete absorption: CL=(QH*Fa*CL/F)/(QH+Fa*CL/F).

[4] = 50 mg BID, steady state, geometric mean
[5] = 50 mg BID, steady state, mean ± SD
[6] = 50 mg QD, steady state, mean ± SD
[7] = 100 mg BID, steady state, geometric mean
[8] = 100 mg BID, steady state, mean ± SD
[9] = 300 mg BID, steady state, geometric mean
[10] = 300 mg BID, steady state, mean ± SD
[11] = 400 mg BID, steady state, geometric mean
[12] = 400 mg BID, steady state, mean ± SD
[13] = 500 mg BID, steady state, geometric mean
[14] = 500 mg BID, steady state, mean ± SD
[15] = 600 mg BID, steady state, geometric mean
[16] = 600 mg BID, steady state, mean ± SD
[17] = 700 mg BID, steady state, geometric mean
[18] = 700 mg BID, steady state, mean ± SD
[19] = BID doses 50 to 700 mg, steady state
[20] = human, plasma, oral, 50 mg, 50 mg QD, steady state, geometric mean
[21] = human, plasma, oral, 100 mg, 100 mg BID, steady state, geometric mean
[22] = human, plasma, oral, 300 mg, 300 mg BID, steady state, geometric mean
[23] = human, plasma, oral, 400 mg, 400 mg BID, steady state, geometric mean
[24] = human, plasma, oral, 500 mg, 500 mg BID, steady state, geometric mean
[25] = human, plasma, oral, 600 mg, 600 mg BID, steady state, geometric mean
[26] = human, plasma, oral, 700 mg, 700 mg BID, steady state, geometric mean

SMILES: NS(=O)(=O)NCCNc1nonc1C(=NO)Nc1ccc(F)c(Br)c1 [Compound 1, 4-({2-[(aminosulfonyl)amino]ethyl}amino)-N-(3-bromo-4-fluorophenyl)-N′-hydroxy-1,2,5-oxadiazole-3-carboximidamide]
- NOAEL unbound AUC0-24h [1]: 7.9 µM·h
- unbound fraction in plasma [2]: 3.1%
- CL/F [3, 4]: 40.3 L/h
- Cmax [3, 4]: 715 nM
- AUC0-τ [3, 5]: 3.05 ± 1.36 µM·h
- CL/F [3, 5]: 43.3 ± 19.2 L/h
- Cmax [3, 5]: 742 ± 212 nM
- Cmin [3, 5]: 84 ± 63 nM
- t1/2 [3, 5]: 2.4 ± 0.56 h
- tmax ([3]; 50 mg BID, steady state, median): 2.0 h
- trough concentrations ([3]; 50 mg QD): low and generally not quantifiable
- CL/F ([3]; 50 mg QD, steady state, geometric mean): 73.0 L/h
- AUC(0-t) [3, 6]: 1.39 ± 0.256 µM·h
- CL/F [3, 6]: 73.8 ± 14.7 L/h
- Cmin [3, 6]: 0 ± 0 nM
- t1/2 [3, 6]: 2.4 ± 0.26 h
- tmax ([3]; 50 mg QD, steady state, median): 2.0 h
- CL/F [3, 7]: 42.4 L/h
- Cmin [3, 7]: 171 nM
- AUC0-τ [3, 8]: 5.77 ± 2.34 µM·h
- CL/F [3, 8]: 45.8 ± 20.9 L/h
- Cmax [3, 8]: 1230 ± 348 nM
- Cmin [3, 8]: 201 ± 111 nM
- t1/2 [3, 8]: 3.3 ± 0.75 h
- tmax ([3]; 100 mg BID, steady state, median): 2.0 h
- CL/F [3, 9]: 70.2 L/h
- Cmin [3, 9]: 251 nM
- t1/2 [3, 9]: 3.5 h
- AUC0-τ [3, 10]: 9.78 ± 0.86 µM·h
- CL/F [3, 10]: 70.4 ± 6.19 L/h
- Cmax [3, 10]: 2480 ± 515 nM
- Cmin [3, 10]: 287 ± 146 nM
- t1/2 [3, 10]: 3.9 ± 2.1 h
- tmax ([3]; 300 mg BID, steady state, median): 2.0 h
- CL/F [3, 11]: 51.8 L/h
- Cmin [3, 11]: 523 nM
- AUC0-τ [3, 12]: 19.6 ± 7.43 µM·h
- CL/F [3, 12]: 62.3 ± 52.3 L/h
- Cmax [3, 12]: 4390 ± 2020 nM
- Cmin [3, 12]: 624 ± 339 nM
- t1/2 [3, 12]: 2.7 ± 0.62 h
- tmax ([3]; 400 mg BID, steady state, median): 2.0 h
- CL/F [3, 13]: 58.0 L/h
- Cmin [3, 13]: 562 nM
- AUC0-τ [3, 14]: 20.6 ± 6.82 µM·h
- CL/F [3, 14]: 60.5 ± 19.1 L/h
- Cmin [3, 14]: 604 ± 260 nM
- t1/2 [3, 14]: 2.4 ± 0.37 h
- tmax ([3]; 500 mg BID, steady state, median): 2.0 h
- effect of a high-fat meal on plasma exposures ([3]; 600 mg BID, 1-way crossover ANOVA): not statistically significant
- tmax ([3]; 600 mg BID, food effect cohort, Fasted, median): 2.0 h
- decrease of geometric mean Cmax by a high-fat meal ([3]; 600 mg BID, steady state): approximately 10%
- increase of geometric mean AUC0-12h by a high-fat meal ([3]; 600 mg BID, steady state): 22%
- CL/F [3, 15]: 63.5 L/h
- Cmin [3, 15]: 731 nM
- CL/F [3, 16]: 66.4 ± 18.6 L/h
- Cmin [3, 16]: 932 ± 704 nM
- t1/2 [3, 16]: 3.3 ± 0.97 h
- tmax ([3]; 600 mg BID, steady state, median): 2.0 h
- highest steady-state mean unbound daily AUC0-24h (=2×AUC0-12h) ([3]; 700 mg BID): 2.2 µM·h
- CL/F [3, 17]: 47.2 L/h
- Cmin [3, 17]: 1260 nM
- AUC0-τ [3, 18]: 35.8 ± 15.5 µM·h
- CL/F [3, 18]: 49.5 ± 17.1 L/h
- Cmax [3, 18]: 6230 ± 2090 nM
- Cmin [3, 18]: 1320 ± 417 nM
- dose proportionality of exposures (Cmax and AUC) ([3]; 50 to 700 mg BID): slightly less than proportional to dose; also recorded: less than proportional to dose
- exponent β of power-function regression, AUC0-12h vs Dose [3, 19]: 0.843
- exponent β of power-function regression, Cmax vs Dose [3, 19]: 0.779
- increase of mean AUC0-τ by systemic accumulation ([3]; BID dosing): 33%
- increase of mean Cmax by systemic accumulation ([3]; BID dosing): 16%
- oral-dose clearance CL/F ([3]; geometric mean, pooled 42 subjects, Cycle 1 Day 15): 55.3 L/h
- systemic clearance in percent hepatic blood flow ([3]; human, estimated): 29%
- fraction of oral dose absorbed (Fa) ([3]; human, estimated as mean of cynomolgus monkey and beagle dog): 64%
- AUC(0-t) ([3]; human, plasma, oral, 50 mg, 50 mg BID, steady state, geometric mean, read-out: AUC0-t): 2.58 µM·h
- AUC ([3]; human, plasma, oral, 50 mg, 50 mg BID, steady state, geometric mean): 2.83 µM·h
- half-life ([3]; human, plasma, oral, 50 mg, 50 mg BID, steady state, geometric mean, read-out: t1/2 (converted)): 2.3 h
- AUC(0-t) ([3]; human, plasma, oral, 50 mg, 50 mg BID, steady state, mean ± SD, read-out: AUC0-t): 2.74 ± 1.08 µM·h
- Cmax [3, 20]: 365 nM
- AUC(0-t) ([3]; human, plasma, oral, 50 mg, 50 mg QD, steady state, geometric mean, read-out: AUC0-t): 1.37 µM·h
- AUC [3, 20]: 1.56 µM·h
- half-life ([3]; human, plasma, oral, 50 mg, 50 mg QD, steady state, geometric mean, read-out: t1/2 (converted)): 2.4 h
- Cmax [3, 21]: 1190 nM
- AUC(0-t) ([3]; human, plasma, oral, 100 mg, 100 mg BID, steady state, geometric mean, read-out: AUC0-t): 4.97 µM·h
- AUC [3, 21]: 5.38 µM·h
- half-life ([3]; human, plasma, oral, 100 mg, 100 mg BID, steady state, geometric mean, read-out: t1/2 (converted)): 3.2 h
- AUC(0-t) ([3]; human, plasma, oral, 100 mg, 100 mg BID, steady state, mean ± SD, read-out: AUC0-t): 5.32 ± 2.16 µM·h
- Cmax [3, 22]: 2440 nM
- AUC(0-t) ([3]; human, plasma, oral, 300 mg, 300 mg BID, steady state, geometric mean, read-out: AUC0-t): 8.88 µM·h
- AUC [3, 22]: 9.75 µM·h
- AUC(0-t) ([3]; human, plasma, oral, 300 mg, 300 mg BID, steady state, mean ± SD, read-out: AUC0-t): 8.92 ± 0.841 µM·h
- Cmax [3, 23]: 3880 nM
- AUC(0-t) ([3]; human, plasma, oral, 400 mg, 400 mg BID, steady state, geometric mean, read-out: AUC0-t): 15 µM·h
- AUC [3, 23]: 17.6 µM·h
- half-life ([3]; human, plasma, oral, 400 mg, 400 mg BID, steady state, geometric mean, read-out: t1/2 (converted)): 2.6 h
- AUC(0-t) ([3]; human, plasma, oral, 400 mg, 400 mg BID, steady state, mean ± SD, read-out: AUC0-t): 16.7 ± 6.79 µM·h
- Cmax [3, 24]: 4480 nM
- AUC(0-t) ([3]; human, plasma, oral, 500 mg, 500 mg BID, steady state, geometric mean, read-out: AUC0-t): 17.3 µM·h
- AUC [3, 24]: 19.7 µM·h
- half-life ([3]; human, plasma, oral, 500 mg, 500 mg BID, steady state, geometric mean, read-out: t1/2 (converted)): 2.4 h
- AUC(0-t) ([3]; human, plasma, oral, 500 mg, 500 mg BID, steady state, mean ± SD, read-out: AUC0-t): 18.2 ± 6.46 µM·h
- Cmax ([3]; human, plasma, oral, 600 mg, 600 mg BID, Fed (high-fat meal), geometric mean): 4030 nM
- AUC(0-t) ([3]; human, plasma, oral, 600 mg, 600 mg BID, Fed (high-fat meal), geometric mean, read-out: AUC0-12 h): 25.8 µM·h
- Cmax ([3]; human, plasma, oral, 600 mg, 600 mg BID, Fed (high-fat meal), mean ± SD): 4530 ± 2520 nM
- AUC(0-t) ([3]; human, plasma, oral, 600 mg, 600 mg BID, Fed (high-fat meal), mean ± SD, read-out: AUC0-12 h): 29.5 ± 18.2 µM·h
- tmax ([3]; human, plasma, oral, 600 mg, 600 mg BID, Fed (high-fat meal), median, read-out: Tmax): 6 h
- Cmax ([3]; human, plasma, oral, 600 mg, 600 mg BID, food effect cohort, Fasted, geometric mean): 4520 nM
- AUC(0-t) ([3]; human, plasma, oral, 600 mg, 600 mg BID, food effect cohort, Fasted, geometric mean, read-out: AUC0-12 h): 21.6 µM·h
- Cmax ([3]; human, plasma, oral, 600 mg, 600 mg BID, food effect cohort, Fasted, mean ± SD): 4820 ± 2160 nM
- AUC(0-t) ([3]; human, plasma, oral, 600 mg, 600 mg BID, food effect cohort, Fasted, mean ± SD, read-out: AUC0-12 h): 22.9 ± 9.99 µM·h
- Cmax [3, 25]: 4520 nM
- AUC(0-t) ([3]; human, plasma, oral, 600 mg, 600 mg BID, steady state, geometric mean, read-out: AUC0-t): 18.3 µM·h
- AUC [3, 25]: 21.6 µM·h
- half-life ([3]; human, plasma, oral, 600 mg, 600 mg BID, steady state, geometric mean, read-out: t1/2 (converted)): 3.2 h
- AUC(0-t) ([3]; human, plasma, oral, 600 mg, 600 mg BID, steady state, mean ± SD, read-out: AUC0-t): 19.5 ± 8.4 µM·h
- tmax ([3]; human, plasma, oral, 600 mg, 600 mg BID, steady state, read-out: prolongation of Tmax by a high-fat meal): 4 h
- Cmax [3, 26]: 6000 nM
- AUC(0-t) ([3]; human, plasma, oral, 700 mg, 700 mg BID, steady state, geometric mean, read-out: AUC0-t): 29.6 µM·h
- AUC [3, 26]: 33.9 µM·h
- half-life ([3]; human, plasma, oral, 700 mg, 700 mg BID, steady state, geometric mean, read-out: t1/2 (converted)): 2.9 h
- AUC(0-t) ([3]; human, plasma, oral, 700 mg, 700 mg BID, steady state, mean ± SD, read-out: AUC0-t): 30.8 ± 10.5 µM·h
- half-life ([3]; human, plasma, oral, from accumulation ratio based on AUC, read-out: effective t1/2 (converted)): ~6 h
- clearance ([3]; human, plasma, oral, read-out: mean systemic clearance CL (converted)): 417 mL/min
- bioavailability ([3]; plasma, oral, human, estimated, CL/CLoral, read-out: mean absolute bioavailability (F)): 45%
- systemic accumulation ([3]; repeat 50 mg QD administration): no evidence of systemic accumulation
- day on which steady-state of PK was observed ([3]; repeat BID dosing, judged by trough plasma concentrations): ≤ 8 days
- effective half-life ([3]; suggested by accumulation of Cmax and AUC0-τ, BID dosing): 4 to 6 h
